Measured values as given in patent US20240350643A1, “PROTEIN DEGRADATION AGENT” (SUZHOU KINTOR PHARMACEUTICALS, INC., priority 2021, published 2024).

Key:
HL60 cells = assay: Anti-proliferation ability of compounds on HL60 cells (CTG); assay type: cell-based, human; conditions: Homo sapiens, HL-60, 72 h, 3 days, CellTiter-Glo, read-out: HL60 cells Proliferation inhibitory activity
Protocol: II. Activity test 2: Anti-proliferation ability of compounds on HL60 cells: 1 Cell plating
HL60 cells in the logarithmic growth phase were counted and plated evenly in a 96-well transparent bottom white plate at 20000 cells per well and 100 μL per well.
A certain amount of the compounds was weighed and diluted with DMSO to a 10 mM stock solution. The culture mediums corresponding to the cells were taken, and the drugs were diluted to the concentration required by the test, shaken gently and mixed evenly. 50 μl of the gradient dilution of the diluted compound was added to each well of the plated cells, and 50 μL of 0.1% DMSO was added to the control group. The plate was shaken gently, mixed evenly and incubated in a cell culture incubator for 3 days.
• 3.1 The CellTiter-GLo™ (CTG) reagent was taken in advance from the −20° C. refrigerator and equilibrated to room temperature in the dark (white bottle+brown bottle, 1:1 mixing evenly into the brown bottle, for later use). • 3.2 The 96-well plate was taken out and inspected under a microscope for growth situation. • 3.3 The bottom of the 96-well plate was tagged with white paper, and then the plate was wrapped with tin foil paper, shaken at 37° C. at 300 r for 10 min and mixed evenly. • 3.4 50 ul of CTG detection reagent was added to each well, Luminescence signal was detected using a microplate reader, and the inhibition rate was calculated. IC50 values of the compounds were calculated by XLfit software to evaluate the proliferation inhibitory activity on HL60 cells.

c-Myc protein = molecular target: T1, c-Myc protein (Homo sapiens, UniProt P01106); assay: Ability of compounds to degrade c-Myc protein in HL60 cells (ELISA); assay type: cell-based; conditions: HL-60, 1 μM compound, 24 h, read-out: HL60 cells Protein degradation rate (1 μM)
T1 construct: endogenous in cells; host or cells: HL60 cells
Protocol: I Activity test 1: Ability of compounds to degrade c-Myc protein in HL60 cells:
HL60 cells in the exponential growth phase were centrifuged, diluted with fresh culture mediums to 6×10^4 cells/100 μL and plated into a 96-well plate at 100 μL per well.
Preparation of test compounds: the compounds were weighed and diluted with DMSO to a 10 mM stock solution for later use. According to test requirements, drugs were diluted with cell culture mediums, with ten-fold dilutions starting from 10 μM, to achieve 3 concentration gradients: 10 μM, 1 μM and 100 NM; and finally, 1 μL of the drugs (DMSO content: 0.01%) were added to each well. For the blank control group, DMSO was also diluted with cell culture mediums, and finally, 1 μL of the control reagent (DMSO content: 0.01%) was added to each well.
3. Effect of drugs on c-Myc in cells as determined by ELISA
After 24 h of drug action, the culture mediums were removed, and the cells were washed once with ice-cold 1× PBS. PBS was removed, and 100 μL of ice-cold 1× Cell Lysis Buffer plus 1 mM phenylmethylsulfonyl fluoride (PMSF) was added to each well. The plate was incubated on ice for 20 min and centrifuged at 4000 RPM at 4° C. for 10 min for later use.
4. Reagent and antibody preparation in ELISA kit 1× wash buffer • 1). 16 mL of ELISA wash buffer concentrate (25×) was diluted with 384 mL of deionized water or distilled water, labeled as 1× Wash Buffer. • 2). The concentrate and 1× Wash Buffer were stored in the refrigerator. The diluted buffer was used within 14 days.
The cell extraction buffer contains 10 mM Tris (pH 7.4), 100 mM NaCl, 1 mM EDTA, 1 mM EGTA, 1 mM NaF, 20 mM Na4P2O7 2 mM Na3VO4. 1% Triton™ ×-100, 10% glycerol, 0.1% SDS and 0.5% deoxycholate. Immediately before use, PMSF (0.3 M stock solution in DMSO) was added to the buffer to a final concentration of 1 mM.
Standard curve configuration: The standard liquid was diluted using glass or plastic tubes. • 1). Huc-Myc (total) standard liquid (Invitrogen, KH02041) was reconstituted with a standard dilution to 1000 pg/mL. Refer to the standard vial label for instructions. The contents were gently swirled or mixed and then allowed to stand for 10 minutes to ensure complete reconstitution, labeled as 1,000 pg/mL human c-Myc. The standard liquid was used within 1 hour after reconstitution. • 2). 250 μL of standard dilution buffers were added to 7 test tubes respectively labeled 500, 250, 125, 62.5, 31.25, 15,63 and 0 pg/mL. • 3). 250 μL of the 1000 pg/ml standard stock solution was added to the first EP tube to a concentration of 500 pg/mL, vortexed and mixed evenly. 250 μL of the resulting mixture was further pipetted and added to the second EP tube to a concentration of 250 pg/mL. Serial dilutions were performed until the sixth EP tube with a concentration of 15.63 pg/mL. Dilution was not performed on the last EP tube. • 4). The remaining reconstituted standard liquid should be discarded, or aliquoted and frozen at −80° C. for further use. Standards can be frozen and thawed only once without losing immunoreactivity.
1× anti-rabbit IgG HRP solution: 1× anti-rabbit IgG HRP solution was prepared within 15 minutes of use. The anti-rabbit IgG HRP (100×) contained 50% viscous glycerol. To ensure accurate dilutions, the following operations were carried out: 1 For each 8-well test strip used in the test, 10 μl, of the anti-rabbit IgG -IRP (100×) solution was pipetted, wherein the pipette tip was wiped with clean absorbent paper to remove excess solutions, and then the solution was dispensed into a test tube containing 1 mL of HRP diluent and mixed thoroughly. 2. The unused anti-rabbit IgG HRP (100×) was placed in the refrigerator for storage.
50 μL of the standard liquid was added to the appropriate wells and not added to the blank control well. Except for the blank control well, 50 μL of Hu c-Myc (total) detection antibody solution was added to each well and mixed by tapping the side face of the plate. […]

T1 sequence (P01106 whole entry): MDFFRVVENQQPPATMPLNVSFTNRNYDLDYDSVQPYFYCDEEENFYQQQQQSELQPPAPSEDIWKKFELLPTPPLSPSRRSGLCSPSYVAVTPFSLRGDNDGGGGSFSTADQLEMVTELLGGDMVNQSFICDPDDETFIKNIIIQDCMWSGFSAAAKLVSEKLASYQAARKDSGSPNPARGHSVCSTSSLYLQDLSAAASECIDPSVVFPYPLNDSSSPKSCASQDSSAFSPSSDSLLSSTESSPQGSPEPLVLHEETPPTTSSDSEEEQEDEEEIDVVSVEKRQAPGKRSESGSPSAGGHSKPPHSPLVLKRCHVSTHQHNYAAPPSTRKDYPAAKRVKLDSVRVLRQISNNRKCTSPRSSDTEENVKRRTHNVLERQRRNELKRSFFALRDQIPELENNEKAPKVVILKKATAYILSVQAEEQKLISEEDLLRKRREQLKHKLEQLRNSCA

Row | SMILES | IC50 (HL60 cells) [µM] | inhibition at 1 µM (c-Myc protein) [%]
1 | CN(CCc1cccc2ccccc12)Cc1ccc(C2(NC(=O)c3ccc4c(c3)C(=O)N(C3CCC(=O)NC3=O)C4=O)CC2)cc1 (stereo not drawn) [A139] | 0.0225 ± 0.0143 | 60 to 90
2 | O=C(Cn1c2ncccc2c2cccnc21)NCCCCCCNC(=O)c1ccc2c(c1)C(=O)N(C1CCC(=O)NC1=O)C2=O (stereo not drawn) [A4] | 0.221 ± 0.0545 | 10 to 30
3 | O=C(Cc1cccc2ccc(F)cc12)NCc1ccc(CNC(=O)c2ccc3c(c2)CN(C2CCC(=O)NC2=O)C3=O)c(C(F)(F)F)c1 (stereo not drawn) [A162] | 0.0019 ± 0.0002 | 60 to 90
4 | O=C1CCC(N2C(=O)c3ccc(C(=O)NCc4ccc(COCCn5c6ccccc6c6cccnc65)cc4)cc3C2=O)C(=O)N1 (stereo not drawn) [A76] | 0.432 ± 0.138 | 60 to 90
5 | O=C1CCC(N2C(=O)c3ccc(CNCc4ccc(C(=O)NCCc5cccc6ccccc56)cc4)cc3C2=O)C(=O)N1 (stereo not drawn) [A179] | 0.014 ± 0.0041 | 60 to 90
6 | O=C(CN(c1ccccc1)c1ccccc1)NCCCCCCNC(=O)c1ccc2c(c1)C(=O)N(C1CCC(=O)NC1=O)C2=O (stereo not drawn) [A5] | 0.391 ± 0.0047 | 30 to 60
7 | O=C(Cc1cccc2cccnc12)NCc1ccc(CC(=O)Nc2ccc3c(c2)CN(C2CCC(=O)NC2=O)C3=O)cc1 (stereo not drawn) [A173] | < 0.003 | 60 to 90
8 | COCCN(CCn1c2ccccc2c2cccnc21)Cc1ccc(CNC(=O)c2ccc3c(c2)C(=O)N(C2CCC(=O)NC2=O)C3=O)cc1 (stereo not drawn) [A91] | 0.012 ± 0.0044 | 60 to 90
9 | CN(CCc1cccc(Cl)c1Cl)Cc1ccc(CNC(=O)c2ccc3c(c2)C(=O)N(C2CCC(=O)NC2=O)C3=O)cc1 (stereo not drawn) [A99] | 0.0198 ± 0.0048 | 60 to 90
10 | COc1ccccc1CC(=O)NCc1ccc(CNC(=O)c2ccc3c(c2)C(=O)N(C2CCC(=O)NC2=O)C3=O)cc1 (stereo not drawn) [A54] | 2.33 ± 0.518 | 60 to 90
11 | O=C(Cn1c2ccccc2c2cccnc21)NCc1ccc(COCc2ccc3c(c2)C(=O)N(C2CCC(=O)NC2=O)C3=O)cc1 (stereo not drawn) [A192] | 0.0077 ± 0.0021 | 60 to 90
12 | O=C(Cn1c2ccccc2c2cccnc21)NCc1ccc(CNC(=O)c2ccc3c(c2)CN([C@@H]2CCC(=O)NC2=O)C3=O)cc1 [A225] | 0.0013 ± 0.0002 | 60 to 90
13 | O=C1CCC(N2Cc3cc(C(=O)NCc4ccc(C5(NC(=O)Cc6cccc7ccccc67)CC5)cc4F)ccc3C2=O)C(=O)N1 (stereo not drawn) [A163] | 0.0013 ± 0.0003 | 60 to 90
14 | CN(CCn1c2ccccc2c2cccnc21)Cc1ccc(C2(NC(=O)c3ccc4c(c3)C(=O)N(C3CCC(=O)NC3=O)C4=O)CC2)cc1 (stereo not drawn) [A140] | 0.011 ± 0.0017 | 60 to 90
15 | CS(=O)(=O)N(CCc1cccc2ccccc12)Cc1ccc(CNC(=O)c2ccc3c(c2)C(=O)N(C2CCC(=O)NC2=O)C3=O)cc1 (stereo not drawn) [A77] | 0.0734 | 60 to 90
16 | COc1cccc(CC(=O)NCc2ccc(CNC(=O)c3ccc4c(c3)C(=O)N(C3CCC(=O)NC3=O)C4=O)cc2)c1OC (stereo not drawn) [A56] | 0.666 ± 0.0602 | 60 to 90
17 | CC(C)(NC(=O)Cn1c2ccccc2c2cccnc21)c1ccc(CNC(=O)c2ccc3c(c2)C(=O)N(C2CCC(=O)NC2=O)C3=O)cc1 (stereo not drawn) [A150] | 0.0072 ± 0.001 | 60 to 90
18 | O=C(Cc1cccc2cccnc12)NCc1ccc(CNC(=O)c2ccc3c(c2)C(=O)N(C2CCC(=O)NC2=O)C3=O)cc1 (stereo not drawn) [A34] | 0.018 ± 0.006 | 60 to 90
19 | O=C1CCC(N2Cc3cc(NC(=O)C[C@H]4CC[C@H](NC(=O)NCc5cccc6ccccc56)CC4)ccc3C2=O)C(=O)N1 (stereo partly drawn) [A199] | 0.0033 ± 0.0006 | 60 to 90
20 | CN(CCn1c2ccccc2c2cccnc21)Cc1ccc(CNC(=O)c2ccc3c(c2)C(=O)N(C2CCC(=O)NC2=O)C3=O)c(C(F)(F)F)c1 (stereo not drawn) [A120] | 0.0178 ± 0.0049 | 60 to 90
21 | O=C1CCC(N2C(=O)c3ccc(CNCc4ccc(C(=O)NCCn5c6ccccc6c6cccnc65)cc4)cc3C2=O)C(=O)N1 (stereo not drawn) [A180] | 0.133 ± 0.0484 | 60 to 90
22 | O=C(Cn1c2ccccc2c2cccnc21)NCc1ccc(CNCc2ccc3c(c2)CN(C2CCC(=O)NC2=O)C3=O)cc1 (stereo not drawn) [A194] | 0.00014 ± 1e-05 | 60 to 90
23 | O=C(Cc1cccc2ccccc12)NCCCCCCCCNc1ccc2c(c1)C(=O)N(C1CCC(=O)NC1=O)C2=O (stereo not drawn) [A15] | 0.0163 ± 0.0033 | 60 to 90
24 | N#Cc1ccccc1CC(=O)NCc1ccc(CNC(=O)c2ccc3c(c2)C(=O)N(C2CCC(=O)NC2=O)C3=O)cc1 (stereo not drawn) [A66] | 1.85 ± 1.23 | 60 to 90
25 | O=C(Cn1c2ccccc2c2cccnc21)NCc1ccc(CNCc2ccc3c(c2)C(=O)N(C2CCC(=O)NC2=O)C3=O)c(F)c1 (stereo not drawn) [A190] | 0.0017 ± 0.0006 | 60 to 90
26 | CC(C)N(CCn1c2ccccc2c2cccnc21)Cc1ccc(CNC(=O)c2ccc3c(c2)C(=O)N(C2CCC(=O)NC2=O)C3=O)cc1 (stereo not drawn) [A86] | 0.0244 ± 0.0104 | 60 to 90
27 | O=C(Cc1cccc(F)c1)NCc1ccc(CNC(=O)c2ccc3c(c2)C(=O)N(C2CCC(=O)NC2=O)C3=O)cc1 (stereo not drawn) [A64] | 2.02 | 60 to 90
28 | CC(C)(NC(=O)c1ccc2c(c1)C(=O)N(C1CCC(=O)NC1=O)C2=O)c1ccc(CNC(=O)Cn2c3ccccc3c3cccnc32)cc1 (stereo not drawn) [A146] | 0.0147 ± 0.004 | 60 to 90
29 | O=C(Cc1cccc2ccccc12)NCc1cnc(CNC(=O)c2ccc3c(c2)C(=O)N(C2CCC(=O)NC2=O)C3=O)s1 (stereo not drawn) [A133] | 5.02 ± 0.023 | 10 to 30
30 | CN(CCc1ccc(Cl)c(Cl)c1)Cc1ccc(CC(=O)Nc2ccc3c(c2)C(=O)N(C2CCC(=O)NC2=O)C3=O)cc1 (stereo not drawn) [A170] | 0.004 ± 0.0017 | 60 to 90
